One block for each molecule: values may come before it.
Experiments:
Rattus norvegicus [1] = test: Inhibition of basal plasma DPP4 activity in Sprague-Dawley rat at 10 mg/kg after 1 hr; settings: read-out: Inhibition
[2] = Volume of distribution at steady state in rat at 5 mg/kg, iv or 5 mg/kg, po; assay type: ADME, organism-based; settings: in vivo, read-out: Vdss
Rattus norvegicus [3] = test: Inhibition of basal plasma DPP4 activity in Sprague-Dawley rat at 0.03 mg/kg after 24 hrs; settings: read-out: Inhibition
[4] = Bioavailability in rat at 5 mg/kg, po; assay type: ADME, organism-based; settings: in vivo
[5] = Half life in monkey at 5 mg/kg, po; assay type: ADME, organism-based, Macaca mulatta; parameters: dose 5 mg/kg, route oral; settings: rhesus monkey, in vivo
Rattus norvegicus [6] = test: Inhibition of basal plasma DPP4 activity in Sprague-Dawley rat at 1 mg/kg after 1 hr; settings: read-out: Inhibition
[7] = Plasma clearance in rat at 5 mg/kg, iv or 5 mg/kg, po; assay type: ADME, organism-based
[8] = Half life in rat at 5 mg/kg, po; assay type: ADME, organism-based; parameters: dose 5 mg/kg, route oral; settings: in vivo
[9] = Bioavailability in dog at 5 mg/kg, po; assay type: ADME, organism-based, Canis lupus familiaris; settings: in vivo
[10] = Cmax in rat at 5 mg/kg, po; assay type: ADME, organism-based; parameters: dose 5 mg/kg, route oral; settings: in vivo
Rattus norvegicus [11] = test: Inhibition of basal plasma DPP4 activity in Sprague-Dawley rat at 0.03 mg/kg after 1 hr; settings: read-out: Inhibition
[12] = Plasma clearance in dog at 5 mg/kg, iv or 5 mg/kg, po; assay type: ADME, organism-based, Canis lupus familiaris
Rattus norvegicus [13] = test: Inhibition of basal plasma DPP4 activity in Sprague-Dawley rat at 1 mg/kg after 24 hrs; settings: read-out: Inhibition
[14] = Half life in dog at 5 mg/kg, po; assay type: ADME, organism-based, Canis lupus familiaris; parameters: dose 5 mg/kg, route oral; settings: in vivo
Dipeptidyl peptidase 2 = Dipeptidyl peptidase 2 (Homo sapiens, UniProt Q9UHL4); test: Inhibition of DPP2
[15] = Bioavailability in monkey at 5 mg/kg, po; assay type: ADME, organism-based, Macaca mulatta; settings: rhesus monkey, in vivo
[16] = Plasma clearance in monkey at 5 mg/kg, iv or 5 mg/kg, po; assay type: ADME, organism-based, Macaca mulatta; settings: rhesus monkey
Rattus norvegicus [17] = test: Inhibition of basal plasma DPP4 activity in Sprague-Dawley rat at 10 mg/kg after 24 hrs; settings: read-out: Inhibition
[18] = Cmax in monkey at 5 mg/kg, po; assay type: ADME, organism-based, Macaca mulatta; parameters: dose 5 mg/kg, route oral; settings: rhesus monkey, in vivo
[19] = Volume of distribution at steady state in dog at 5 mg/kg, iv or 5 mg/kg, po; assay type: ADME, organism-based, Canis lupus familiaris; settings: in vivo, read-out: Vdss
Rattus norvegicus [20] = test: Inhibition of basal plasma DPP4 activity in Sprague-Dawley rat at 0.1 mg/kg after 24 hrs; settings: read-out: Inhibition
Rattus norvegicus [21] = test: Inhibition of basal plasma DPP4 activity in Sprague-Dawley rat at 0.1 mg/kg after 1 hr; settings: read-out: Inhibition
[22] = Volume of distribution at steady state in monkey at 5 mg/kg, iv or 5 mg/kg, po; assay type: ADME, organism-based, Macaca mulatta; settings: rhesus monkey, in vivo, read-out: Vdss
Dipeptidyl peptidase 8 = Dipeptidyl peptidase 8 (Homo sapiens, UniProt Q6V1X1); test: Inhibition of DPP8
Sequence of Dipeptidyl peptidase 8 (Q6V1X1 whole entry): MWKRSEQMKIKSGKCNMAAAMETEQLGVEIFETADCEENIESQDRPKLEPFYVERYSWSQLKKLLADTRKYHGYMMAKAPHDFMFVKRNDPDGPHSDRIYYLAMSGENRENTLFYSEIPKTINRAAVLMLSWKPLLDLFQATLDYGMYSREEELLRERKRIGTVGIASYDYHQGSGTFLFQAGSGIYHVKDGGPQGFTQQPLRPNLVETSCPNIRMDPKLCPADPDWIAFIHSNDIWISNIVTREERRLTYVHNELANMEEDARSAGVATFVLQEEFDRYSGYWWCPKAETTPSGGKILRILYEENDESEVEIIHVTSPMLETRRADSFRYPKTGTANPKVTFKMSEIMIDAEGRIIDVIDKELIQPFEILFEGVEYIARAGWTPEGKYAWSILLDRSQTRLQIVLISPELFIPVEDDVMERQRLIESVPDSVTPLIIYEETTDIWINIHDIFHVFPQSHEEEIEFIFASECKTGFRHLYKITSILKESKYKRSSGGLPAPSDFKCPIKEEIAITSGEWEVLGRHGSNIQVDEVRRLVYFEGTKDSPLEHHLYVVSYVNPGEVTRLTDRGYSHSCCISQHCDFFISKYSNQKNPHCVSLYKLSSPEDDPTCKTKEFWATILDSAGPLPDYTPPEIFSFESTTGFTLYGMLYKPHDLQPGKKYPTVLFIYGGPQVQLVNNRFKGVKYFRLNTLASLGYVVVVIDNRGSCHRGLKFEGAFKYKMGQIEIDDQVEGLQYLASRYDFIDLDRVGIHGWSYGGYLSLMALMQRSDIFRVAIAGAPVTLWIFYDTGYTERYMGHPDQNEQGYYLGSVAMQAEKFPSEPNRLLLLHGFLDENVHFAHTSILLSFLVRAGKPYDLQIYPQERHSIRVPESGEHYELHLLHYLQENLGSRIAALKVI

SMILES: Cc1cc(C)c(-c2nnc(C(=O)[C@@H]3CCCN3C(=O)CNC(C)(C)C)o2)c(C)c1
- IC50 (Dipeptidyl peptidase 8): < 390 nM
- IC50 (Dipeptidyl peptidase 2): < 390 nM

SMILES: CC(C)(C)NCC(=O)N1CCC[C@H]1C(=O)c1nnc(C2(C)CCCCC2)o1
- IC50 (Dipeptidyl peptidase 8): < 390 nM
- IC50 (Dipeptidyl peptidase 2): 8660 nM

SMILES: CC(C)(C)NCC(=O)N1CCC[C@H]1C(=O)c1noc(C2(C)CCCCC2)n1
- IC50 (Dipeptidyl peptidase 8): < 390 nM
- IC50 (Dipeptidyl peptidase 2): < 390 nM

SMILES: CC(C)(C)NCC(=O)N1CCC[C@H]1C(=O)c1nnc(C(C)(C)C)o1
- IC50 (Dipeptidyl peptidase 2): > 10000 nM

SMILES: CC(C)(C)NCC(=O)N1CCC[C@H]1C(=O)c1noc(-c2ccc(F)cc2)n1
- IC50 (Dipeptidyl peptidase 8): < 390 nM
- IC50 (Dipeptidyl peptidase 2): < 390 nM

More lines, main results first:

- Vd [2]: 14 L/kg
- bioavailability [4]: 39%
- half-life [5]: 4.63 h
- clearance [7]: 241 mL/min/kg
- half-life [8]: 4.15 h
- bioavailability [9]: 87%
- Cmax [10]: 30 ng/mL
- clearance [12]: 71 mL/min/kg
- half-life [14]: 1.47 h
- IC50 (Dipeptidyl peptidase 2): 146000 nM
- bioavailability [15]: 35%
- clearance [16]: 18 mL/min/kg
- Cmax [18]: 210 ng/mL
- Vd [19]: 4.87 L/kg
- Vd [22]: 2.42 L/kg
SMILES: CC(C)(CO)NCC(=O)N1C[C@@H](F)C[C@H]1C(=O)c1nnc(C(C)(C)C)o1
- inhibition in vivo at 10 mg/kg (Rattus norvegicus [1]): 68%
- inhibition in vivo at 0.03 mg/kg (Rattus norvegicus [3]): 76%
- inhibition in vivo at 1 mg/kg (Rattus norvegicus [6]): 46%
- inhibition in vivo at 0.03 mg/kg (Rattus norvegicus [11]): 66%
- inhibition in vivo at 1 mg/kg (Rattus norvegicus [13]): 50%
- inhibition in vivo at 10 mg/kg (Rattus norvegicus [17]): 74%
- inhibition in vivo at 0.1 mg/kg (Rattus norvegicus [20]): 82%
- inhibition in vivo at 0.1 mg/kg (Rattus norvegicus [21]): 82%

- IC50 (Dipeptidyl peptidase 8): < 390 nM
- IC50 (Dipeptidyl peptidase 2): < 390 nM
SMILES: CC(C)(C)NCC(=O)N1C[C@@H](F)C[C@H]1C(=O)c1nnc(C2CCCCC2)o1

- IC50 (Dipeptidyl peptidase 8): < 390 nM
- IC50 (Dipeptidyl peptidase 2): 97200 nM
SMILES: CCC(C)(C)c1nnc(C(=O)[C@@H]2C[C@H](F)CN2C(=O)CNC(C)(C)C)o1
